Measured values published in patent US20230149374A1, “METHODS AND COMPOSITIONS FOR TREATING ATHEROSCLEROSIS” (Sanford Burnham Prebys Medical Discovery Institute, priority 2021, published 2023).

System: ApoE-deficient mice
Assay: In vivo aortic calcification imaging, 18F-NaF μPET / μCT
Design: species or system mouse
Details: ApoE-deficient mice on HFD, 30 mg/kg/day in food from 10 to 25 weeks of age; control 6 out of 11
Description: Four cohorts of mice were used in these studies (FIGS. 8A and 9A). Cohorts 1 and 2 were devoted to the in vivo and ex vivo characterization of TNAP-associated plaque calcification. 6-week-old ApoE-deficient male mice were received at the animal facility and placed in conventional cages with 5 mice per cage. Mice were maintained on a 12-hrs light-dark cycle (7:00 am-7:00 pm) and were supplied with food and water ad libitum. From 10 weeks of age, they were fed ad libitum with a high fat diet (HFD, D12108C, Research Diets, New Brunswick, USA) containing 40% fat (kcal) and 1.25% cholesterol (weight). In cohort 1, 8 mice were sacrificed every 2 weeks between weeks 17 to 31, for histological and molecular analyses. Total body weight was measured weekly after starting the HFD. The sacrifice was done after anesthesia with isoflurane and intracardiac blood puncture by CO2 inhalation. Tissues were harvested as described below. The abdominal aorta was used for quantitative polymerase chain reaction (PCR) analyses. […] Plaque calcification was analyzed at 25 weeks, and possible side effects of TNAP inhibition were explored in mice aged 31 weeks. […]
Mice were placed into a chamber connected to an isoflurane anesthesia unit. […] Images were analyzed using Inveon Research workplace (Siemens). The presence of atherosclerotic plaques was evaluated both in CT and PET images. […]

With `COc1ccc(Cl)cc1S(=O)(=O)Nc1cncc(C(N)=O)c1` [SBI-425] the “mice having calcifications, in vivo 18F-NaF μPET and μCT” value was 0 out of 12.
